Measurements published in US5716929A (Vertex Pharmaceuticals, Inc., priority 1995, dated 1998).

What follows are compounds tested against T1, interleukin-1β converting enzyme (ICE) (Homo sapiens, UniProt P29466) (assay: Enzyme assay with UV-visible substrate (Succinyl-Tyr-Val-Ala-Asp-pNitroanilide)). Conditions: Example 2 table.
T1 sequence (P29466 120-297 limits assumed): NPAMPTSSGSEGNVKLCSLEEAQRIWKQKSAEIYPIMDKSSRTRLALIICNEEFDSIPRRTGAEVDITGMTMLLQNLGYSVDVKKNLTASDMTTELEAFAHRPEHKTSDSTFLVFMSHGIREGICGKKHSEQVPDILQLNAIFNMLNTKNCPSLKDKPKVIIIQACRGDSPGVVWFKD
T1 sequence (P29466 317-404 limits assumed): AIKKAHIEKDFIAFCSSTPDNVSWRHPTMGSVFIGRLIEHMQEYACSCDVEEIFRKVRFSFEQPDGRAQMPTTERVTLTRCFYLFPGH
Type: biochemical
Protocol: 1. Enzyme assay with UV-visible substrate
This assay is run using an Succinyl-Tyr-Val-Ala-Asp-pNitroanilide substrate (SEQ ID NO: 1). Synthesis of analogous substrates is described by L. A. Reiter (Int. J. Peptide Protein Res. 43, 87-96 (1994)). The assay mixture contains: […]
The visible ICE assay is run in a 96-well microtiter plate. Buffer, ICE and DMSO (if inhibitor is present) are added to the wells in the order listed. The components are left to incubate at room temperature for 15 minutes starting at the time that all components are present in all wells. The microtiter plate reader is set to incubate at 37° C. After the 15 minute incubation, substrate is added directly to the wells and the reaction is monitored by following the release of the chromophore (pNA) at 405-603 nm at 37° C. for 20 minutes. A linear fit of the data is performed and the rate is calculated in mOD/min. DMSO is only present during experiments involving inhibitors, buffer is used to make up the volume to 100 μl in the other experiments.
For determination of enzyme inhibition constants (Ki) or the mode of inhibition (competitive, uncompetitive or noncompetitive), the rate data determined in the enzyme assays at varying inhibitor concentrations are computer-fit to standard enzyme kinetic equations (see I. H. Segel, Enzyme Kinetics, Wiley-Interscience, 1975).

Ki [µM]	Compound
3.2	C[C@H](NC(=O)c1ncc[nH]1)C(=O)N[C@H](C=O)CC(=O)O [Compound 20a, (3S)3-[N-(Imidazole-2-carbonyl)-L-alaninyl]amino-4-oxobutanoic acid]
0.95	C[C@H](NC(=O)c1ncc(CCc2ccccc2)[nH]1)C(=O)N[C@H](C=O)CC(=O)O [Compound 20c, (3S)3-{N-[4-(2-Phenylethyl)imidazole-2-carbonyl]-L-alaninyl}amino-4-oxobutanoic acid]

Same assay, conditions: Example 4 table

Compound	Ki [µM]
O=C[C@H](CC(=O)O)NC(=O)C1CCc2ncc(NC(=O)c3ccccc3)c(=O)n21 (single isomer, unassigned) [Compound 7a]	35
O=C[C@H](CC(=O)O)NC(=O)C1CCc2ncc(NC(=O)c3ccccc3)c(=O)n21 (single isomer, unassigned) [Compound 7b]	1.2
C[C@H](NC(=O)c1nc(Cc2ccccc2)c[nH]1)C(=O)N[C@H](C=O)CC(=O)O [Compound 20b, (3S)3-[N-(4-Benzylimidazole-2-carbonyl)-L-alaninyl]amino-4-oxobutanoic acid]	0.85
C[C@H](NC(=O)c1nc(CCCc2ccccc2)c[nH]1)C(=O)N[C@H](C=O)CC(=O)O [Compound 20d, (3S)3-{N-[4-(3-Phenylpropyl)imidazole-2-carbonyl]-L-alaninyl}amino-4-oxo-butanoic acid]	0.1

The next lines start with the values.

Ki [µM]	Compound
0.1	CC(C)[C@H](NC(=O)OCc1ccccc1)C(=O)N[C@@H](C)C(=O)N[C@H](CC(=O)O)C(=O)COCc1c(Cl)cccc1Cl (mixture of isomers) [Compound 84a, (R,S) N-[N-(Phenylmethyloxy)carbonyl-valinyl-alaninyl]-3-amino-5-(2,6-dichlorophenylmethyloxy)-4-oxo-pentanoic acid]
0.019	CC(=O)N[C@@H](Cc1ccc(O)cc1)C(=O)N[C@H](C(=O)N[C@@H](C)C(=O)N[C@H](CC(=O)O)C(=O)COCc1c(Cl)cccc1Cl)C(C)C (mixture of isomers) [Compound 84b, (R,S)N-[N-(Acetyl)tyrosinyl-valinyl-alaninyl]-3-amino-5-(2,6-dichlorophenylmethyloxy)-4-oxo-pentanoic acid]
0.64	O=C[C@H](CC(=O)O)NC(=O)[C@@H]1CCCN1C(=O)c1nc(CCc2ccccc2)c[nH]1 [Compound 21c, (3S)3{N-[4-(2-Phenylethyl)imidazole-2-carbonyl]-L-prolinyl}amino-4-oxobutanoic acid]
0.24	O=C[C@H](CC(=O)O)NC(=O)[C@@H]1CCCN1C(=O)c1nc(CCCc2ccccc2)c[nH]1 [Compound 21d, (3S) 3-{N-[4-(3-Phenylpropyl)imidazole-2-carbonyl]-L-prolinyl}amino-4-oxo-butanoic acid]
0.22	COc1ccc(CCCc2c[nH]c(C(=O)N3CCC[C@H]3C(=O)N[C@H](C=O)CC(=O)O)n2)cc1 [Compound 21e, (3S)3-{N-[4-[3-(4-Methoxyphenyl)propyl]imidazole-2-carbonyl]-L-prolinyl}amino-4-oxobutanoic acid]
0.17	O=C[C@H](CC(=O)O)NC(=O)[C@@H]1CCCN1C(=O)c1nc(CCCc2ccc(O)cc2)c[nH]1 [Compound 21f, (3S)3-{N-[4-[3-(4-Hydroxyphenyl)propyl]imidazole-2-carbonyl]-L-prolinyl}amino-4-oxobutanoic acid]

Same assay, conditions: Example 6 table

Ki [µM]	Compound
0.345	CC(C(=O)N[C@H](C=O)CC(=O)O)N1CCN(C(=O)CCc2ccccc2)C[C@H](NC(=O)CCc2ccccc2)C1=O (mixture of isomers) [Compound 115, 4-Oxo-3(S)-{2(R,S)-[7-oxo-4-(3-phenyl-propionyl)-6(S)-(3-phenyl-propionylamino)-[1,4]diazepan-1-yl]propionylamino}-butyric acid]
0.19	COc1ccc(CCCc2cnc(C(=O)N3C[C@H](Oc4ccccc4)C[C@H]3C(=O)N[C@H](C=O)CC(=O)O)[nH]2)cc1 [Compound 22e, 3(S)-[(1-{5-[3-(4-Methoxyphenyl)propyl]-1H-imidazole-2-carbonyl}-4(R)-phenoxypyrrolidine-2(S)-carbonyl)amino]-4-oxobutanoic acid]
